For the experiment, the system named is SDF-1. Briefly: Western blot of SDF-1 in hypoxia-reoxygenation treated cells pre-treated with pathway inhibitors. The format is cell-based, human. To be noted: pre-treatment 10 μM. As to the method:
Western blot was also performed to examine the expression of SDF-1, G-CSF, CXCR4, and G-CSF-R in the above-described cells that were treated with hypoxia-reoxygenation. Briefly, cells were placed in a hypoxic chamber (Bug Box, Ruskinn Technology, UK) at 37° C. for 12 hours. The chamber was continuously flushed with 95% N2-5% CO2 to maintain a gas phase PO2 of <1 mmHg (OM-14 oxygen monitor; SensorMedics Corporation, Yorba Linda, Calif.). After each hypoxic treatment, the cells were returned to a 37° C. normoxic incubator (95% air-5% CO2) for different time durations (30 minutes, 1 hour, 4 hours, 12 hours, 24 hours, and 48 hours) of reoxygenation. Cell samples were then collected at each time point and stored at -80° C. For Western blot, the samples were lysed in a buffer containing 320 mM sucrose, 5 mM HEPES, 1 μg/ml leupeptin, 1 μg/ml aprotinin. The resulting lysate were centrifuged at 13,000 g for 15 minutes. The pellet was resuspended in a sample buffer (62.5 mM Tris-HCl, 10% glycerol, 2% SDS, 0.1% bromophenol blue, and 50 mM DTT) and subjected to SDS-polyacrylamide gel (4-12%) electrophoresis. […] The intensity of each detected band was quantified using a Kodak Digital Science 1D Image Analysis System (Eastman Kodak, Rochester, N.Y.). […]
(In western blotting, separated proteins are transferred to a membrane and probed.)

Structures are written as SMILES.

As to `COc1cccc(-c2cc(=O)c3ccccc3o2)c1N` [PD98059], the “expression of SDF-1” value is “stayed at the control level”.
